The values below come from patent US4550186A, “Binuclear copper (II) carboxylates formed from amine-carboxyboranes” (Duke University, priority 1983, dated 1985).

The test system of one test is Holtzman male rats. Kind of test: Rat liver, small intestine and fecal lipid extraction. The format is in vivo. The note with it: 14 days 10 mg/kg/day orally.
Test [1] relates to deoxyribonucleic acid synthesis of Ehrlich ascites cells. Kind of test: In vitro whole cell incorporation: deoxyribonucleic acid synthesis. The format is cell-based, mouse. As to conditions: preliminary, 60 min, read-out: ID50, inhibition of deoxyribonucleic acid synthesis. The protocol:
(§1) CF1 male mice (~30 g) were implanted with 2×10^6 Ehrlich ascites tumor cells, intraperitoneally on Day 0. Compound I was suspended by homogenation in 0.05% polysorbate.80-water and administered intraperitoneally at 10 and 20 mg/kg for 9 days to determine its effectiveness for inhibition of tumor growth. Mice were sacrificed on Day 10, and the ascites fluid was collected from the peritoneal cavity. The volume and ascrit (packed cell volume) were determined for each animal and the percent inhibition of tumor growth was calculated. For the metabolic studies, mice were treated on Days 8 and 9 with 10 mg/kg of Compound I, intraperitoneally. The animal was sacrificed on Day 10 and the ascites fluid harvested. The in vitro metabolic studies were performed at 0.25, 0.50 and 1 mmol final concentration of Compound I.
In vitro incorporation of ^3 H-thymidine, ^3 H-uridine, or ^3 H-leucine was determined using 10^6 Ehrlich ascites cells, 1 μCi labeled precursor, minimum essential medium and varying final concentrations of drug from 0.25-1.0 mM. The tubes were incubated at 37° C. for 60 min and inactivated by trichloroacetic acid. The acid insoluble labeled deoxyribonucleic acid was collected on GF/F glass filter discs and ribonucleic acid and protein were precipitated on nitrocellulose filters by vacuum suction. Results are expressed as dpm of incorporated precursor per hour per 10^6 cells.

Test [2] deals with deoxyribonucleic acid polymerase. The test is described as follows: In vivo nuclear deoxyribonucleic acid polymerase activity. More on the design: species or system mouse. The protocol: as §1
In vitro and in vivo nuclear deoxyribonucleic acid polymerase activity was determined on isolated Ehrlich ascites cell nuclei. The incubation was that described by Sawada et al [Can. Res., 34, 3341 (1974)] except that [methyl-^3 H] deoxythymidine triphosphate (82.4 Ci/mmol) was used. The acid insoluble nucleic acid was collected on GF/F filters and counted. Nuclear ribonucleic acid polymerase activities were determined on enzymes isolated from nuclei. […] The acid insoluble ribonucleic acid was collected on nitrocellulose filters and counted.

The test system of test [3] is ribonucleic acid synthesis of Ehrlich ascites cells. The test is described as follows: In vivo uridine incorporation into ribonucleic acid. Details: species or system mouse. As for the experimental part:
as §1, with “The in vitro metabolic studies were performed at 0.25, 0.50 and 1 mmol final concentration of Compound I.” left out
For in vivo studies, incorporation of thymidine into deoxyribonucleic acid was determined by the method of Chae et al [Proc. Am. […] The deoxyribonucleic acid was isolated and the tritium content was determined in a toluene based scintillation fluid. The deoxyribonucleic acid concentration was determined by the diphenylamine reaction using calf thymus deoxyribonucleic acid as a standard. Uridine incorporation into ribonucleic acid was determined using 10 μCi of 5,6-^3 H-uridine (22.4 Ci/mmol). […] Leucine incorporation into protein was determined by the method of Sartorelli [Biochem. Biophys. […] Protein content was determined by the Lowry procedure using bovine serum albumin as a standard.

The target in test [4] is T1, aspartate carbamyl transferase (Mus musculus, UniProt B2RQC6).
T1 construct: ATCase domain of CAD
The test is described as follows: In vitro aspartate carbamyl transferase activity. The class given is biochemical. As to conditions: 0.25 to 1.0 mM. The protocol:
as §1, with “The animal was sacrificed on Day 10 and the ascites fluid harvested. The in vitro metabolic studies were performed at 0.25, 0.50 and 1 mmol final concentration of Compound I.” left out
Carbamyl phosphate synthetase activity was determined using the reaction medium of Kalman et al [Am. […] Citrulline formed from ornithine was measured at 490 nm by the method of Archibald [J. Biol. Chem., 156, 121 (1944)]. […] The ^14 CO2 generated in 15 min was trapped in 1M KOH and counted. Thymidylate synthetase activity was determined using a post-mitochondrial supernatant (9000 g×10 min) and 5 μCi of 5-^3 H-deoxyuridine monophosphate (14 Ci/mmol) according to the method of Kampf et al [ J. Med. Chem., 19, 903 (1976)]. ^14 C-Formate incorporation into purines was determined by the method of Spassova et al [Biochem. Pharmacol., 25, 923 (1976)] using 0.5 μCi of ^14 C-formic acid (52.0 mCi/mmol). […] The Rf value for xanthine monophosphate was scraped and counted. […]

Where [5] appears, read: 10 mg/kg/day I.P. on Days 8 and 9.

T1 sequence (B2RQC6 2-2225): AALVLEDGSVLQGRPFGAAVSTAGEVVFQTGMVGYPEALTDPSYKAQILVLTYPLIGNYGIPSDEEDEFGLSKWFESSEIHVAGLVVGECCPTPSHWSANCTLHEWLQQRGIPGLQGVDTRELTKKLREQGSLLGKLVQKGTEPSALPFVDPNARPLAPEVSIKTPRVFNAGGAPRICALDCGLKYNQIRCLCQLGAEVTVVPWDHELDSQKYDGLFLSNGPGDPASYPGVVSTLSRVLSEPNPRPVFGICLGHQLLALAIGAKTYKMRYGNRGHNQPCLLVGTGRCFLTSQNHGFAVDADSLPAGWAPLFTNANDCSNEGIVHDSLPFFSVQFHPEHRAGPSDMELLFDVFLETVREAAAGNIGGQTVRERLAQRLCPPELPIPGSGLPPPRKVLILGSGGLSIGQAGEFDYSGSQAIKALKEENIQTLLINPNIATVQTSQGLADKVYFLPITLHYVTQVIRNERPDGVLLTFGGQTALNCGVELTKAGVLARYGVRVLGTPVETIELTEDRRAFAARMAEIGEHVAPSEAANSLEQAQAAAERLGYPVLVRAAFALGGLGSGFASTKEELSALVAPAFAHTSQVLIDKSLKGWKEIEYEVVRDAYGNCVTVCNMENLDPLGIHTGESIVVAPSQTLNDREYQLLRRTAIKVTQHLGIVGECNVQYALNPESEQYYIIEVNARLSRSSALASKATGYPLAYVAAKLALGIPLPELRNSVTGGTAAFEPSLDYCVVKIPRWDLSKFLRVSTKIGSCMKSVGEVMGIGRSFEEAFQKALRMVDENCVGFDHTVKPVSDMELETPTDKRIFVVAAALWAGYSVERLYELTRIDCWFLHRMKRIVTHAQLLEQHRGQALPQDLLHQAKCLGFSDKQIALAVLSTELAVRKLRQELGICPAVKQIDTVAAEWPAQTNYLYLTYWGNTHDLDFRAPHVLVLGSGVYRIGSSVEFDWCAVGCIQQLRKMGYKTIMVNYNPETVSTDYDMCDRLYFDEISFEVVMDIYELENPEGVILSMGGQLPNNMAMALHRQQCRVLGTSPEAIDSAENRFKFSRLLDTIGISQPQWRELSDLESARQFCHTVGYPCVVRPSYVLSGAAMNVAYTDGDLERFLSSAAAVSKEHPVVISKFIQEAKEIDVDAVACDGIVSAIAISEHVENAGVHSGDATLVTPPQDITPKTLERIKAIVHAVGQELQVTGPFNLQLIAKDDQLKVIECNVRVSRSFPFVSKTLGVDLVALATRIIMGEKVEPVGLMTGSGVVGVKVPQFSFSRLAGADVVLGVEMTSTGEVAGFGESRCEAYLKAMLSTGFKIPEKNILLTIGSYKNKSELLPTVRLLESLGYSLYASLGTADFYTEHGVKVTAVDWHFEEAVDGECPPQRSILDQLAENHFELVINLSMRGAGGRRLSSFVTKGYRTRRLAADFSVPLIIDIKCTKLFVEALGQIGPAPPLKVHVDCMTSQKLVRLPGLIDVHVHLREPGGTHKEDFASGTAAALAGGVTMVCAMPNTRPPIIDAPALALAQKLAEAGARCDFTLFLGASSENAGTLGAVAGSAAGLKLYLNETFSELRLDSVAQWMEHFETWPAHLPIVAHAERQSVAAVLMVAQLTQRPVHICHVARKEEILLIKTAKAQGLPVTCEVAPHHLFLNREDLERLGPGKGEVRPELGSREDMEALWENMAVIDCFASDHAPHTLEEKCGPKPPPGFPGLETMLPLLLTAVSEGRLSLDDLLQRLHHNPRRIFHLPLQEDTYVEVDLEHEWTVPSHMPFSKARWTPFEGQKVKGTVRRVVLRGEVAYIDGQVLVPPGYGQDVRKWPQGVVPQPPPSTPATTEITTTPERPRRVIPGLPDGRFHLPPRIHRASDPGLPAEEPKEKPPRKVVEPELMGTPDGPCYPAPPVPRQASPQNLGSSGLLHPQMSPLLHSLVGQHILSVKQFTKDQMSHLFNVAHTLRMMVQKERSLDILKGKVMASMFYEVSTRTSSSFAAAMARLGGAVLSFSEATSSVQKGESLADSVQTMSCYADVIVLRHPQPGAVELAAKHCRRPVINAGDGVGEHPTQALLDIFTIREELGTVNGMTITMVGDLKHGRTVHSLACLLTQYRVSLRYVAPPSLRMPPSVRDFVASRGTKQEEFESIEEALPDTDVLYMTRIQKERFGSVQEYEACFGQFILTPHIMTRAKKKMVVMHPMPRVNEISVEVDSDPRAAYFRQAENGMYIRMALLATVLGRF

As to “{Cu[(CH3)3 N.BH2 CO2 ]2.(CH3)3 N.BH2 COOH} [Compound I]”, in the test on Holtzman male rats (rat Feces), the Cholesterol was found to be 110 ± 6 Percent Control, the “Mg of Lipid Extracted” value is 123 ± 5 Percent Control, the “Neutral Lipids” value is 131 ± 7 Percent Control and the Phospholipids turned out to be 183 ± 8 Percent Control. In the test on Holtzman male rats (rat Feces), this substance showed a Protein of 68 ± 6 Percent Control and a Triglyceride of 133 ± 7 Percent Control. For the same substance, in the test on Holtzman male rats (rat Liver), the Cholesterol came to 65 ± 6 Percent Control, the “Mg of Lipid Extracted” value worked out at 51 ± 5 Percent Control, the “Neutral Lipids” value is 93 ± 9 Percent Control and the Phospholipids stood at 93 ± 9 Percent Control. In the test on Holtzman male rats (rat Liver), this substance yielded a Protein of 99 ± 7 Percent Control and a Triglyceride of 76 ± 7 Percent Control. Besides, in the test with Holtzman male rats (rat Small Intestine), the Cholesterol was 47 ± 6 Percent Control, the “Mg of Lipid Extracted” value was found to be 43 ± 5 Percent Control, the “Neutral Lipids” value is 17 ± 3 Percent Control and the Phospholipids is 46 ± 5 Percent Control. Also, in the test with Holtzman male rats (rat Small Intestine), the Protein worked out at 111 ± 8 Percent Control and the Triglyceride worked out at 40 ± 4 Percent Control. Moreover, the IC50 in test [1] was 940 µM. In test [2], the “Nuclear deoxyribonucleic acid polymerase activity reduced” value was 62%. Also, the “Deoxyribonucleic acid polymerase activity” value in test [2] (setting [5]) is listed as 38 ± 5 % Control. In addition, the “3H-Uridine incorporation into ribonucleic acid” value in test [3] (setting [5]) was determined as 116 ± 10 % Control. Besides, the “uridine incorporation into ribonucleic acid” value in test [3] (10 day Ehrlich ascites cells) is given as “unaffected”. Also, the “aspartate carbamyl transferase inhibition” value in test [4] is given as “not inhibited”.
